# Laboratory results taken from patent US20040023802A1, “Increasing plant yield and/or vigor by seed treatment with a neonicotinoid compound” (Monsanto Technology, L.L.C., priority 2002, published 2004).
# How the values were obtained:
# Format in all cases: in vivo
# corn hybrids = test: Field strip trials of corn yield under different tillage regimes: soil insecticide alone or plus Gaucho seed treatment
# Method: Seed of three corn hybrids were treated with imidacloprid in the manner described in Example 3. Seed were planted using standard planting equipment in field experiments across the U.S. corn belt. All experiments were conducted as strip trials, under a variety of tillage regimes, and all trials received standard weed control and cultural practices common to commercial corn production. Plot yield was collected using standard mechanical harvesting equipment.
# Soil insecticides were applied in the manner described in Example 2. Considerable increase in corn yield was also observed when corn seed treated with imidacloprid were planted in soils treated with soil-applied insecticide. The increase in yield was observed under all tillage conditions and for all the hybrids tested. Table 7 compares the yield from untreated corn seeds and corn seeds treated with imidacloprid when planted on soil treated with soil-applied insecticide. […] Soil-applied insecticides are known to be an effective method for controlling secondary insects, so the increase in corn yield was surprising.
# No-Till-Tillage system refers to situations where no tillage methods are applied to the soil prior to or at planting.
# Conservation/Minimum tillage refers to reduced tillage practices allowing at least 30% of soil surface to remain covered with crop residue.
# Conventional Tillage refers to tillage practices where less than 30% of soil surface is covered with previous crop residue.
# Such practices may include moldboard plowing, disking, or multiple field cultivation passes prior to or at planting of crop. Strip and Ridge-Till, although usually grouped in conservation tillage because of beneficial effects on soil and water retention, are grouped in conventional tillage here because the tilled zones in which the crop is planted provide an environment more similar to true conventional tillage.
# [1] = test system: isoline (non-transgenic) corn hybrids RX670 and RX601; test: Field tests of corn yield of isoline hybrids at low pest pressure, with and without imidacloprid seed treatment; conditions: 60 gm per 100 kg of seed; four location/hybrid cases
# Method: (§1) Corn hybrids with and without transgenic events expressing insecticidal proteins were evaluated for field efficacy. The hybrids that were evaluated were RX670 and RX601, each as an isoline (having no transgenic events) and each having a transgenic event expressing the Cry3Bb protein having activity against Diabrotica spp. (corn rootworm)—designated as MON853, or a transgenic event expressing the Cry3Bb protein having activity against corn rootworm—designated as MON863, or a combination of MON853 and a transgenic event expressing the Cry1A protein having activity against European corn borer—designated as MON810, or a combination of MON863 and MON810. Accordingly, an isoline and four transgenic forms were tested for each hybrid. Each type of seed was tested with and without seed treatment with 60 gm of imidacloprid per 100 kg of seed, applied in a Niklas seed treater. The isoline seeds were also tested with and without the use of conventional soil-applied insecticides, which were applied as described in Example 3.
# commercial corn hybrids = test: Hybrid seed production (breeding station) field trial: final stand count and plot yield of corn from imidacloprid-treated seed; conditions: for Stand count, Imidacloprid treated / Corn yield, Imidacloprid treated: 0.165 mg/kernel + fungicide; for Stand count, Imidacloprid treated: V5 stage; for Corn yield, Imidacloprid treated: at maturity, 15% moisture; for Corn yield, Difference / Stand count, Difference: imidacloprid treated vs fungicide-only control; for Actual Yield Over Expected: yield increase vs that expected from stand improvement (about 1% per 1,000 plants/ac); for Actual Yield Over 2× of Expected: yield increase vs two-times that predicted from stand improvement
# [2] = test system: corn rootworm; secondary insect pests of corn; test: Insect protection of corn by imidacloprid seed treatment at 0.165 mg/kernel (stated as previously shown); conditions: 0.165 mg imidacloprid/kernel
# [3] = test system: corn hybrids RX670 and RX601 having transgenic events MON853, MON863, MON810; test: Field trials of corn yield of transgenic seed at low pest pressure, with and without imidacloprid seed treatment; conditions: 60 gm per 100 kg of seed; all trials; relative absence of insect pressure
# Method: as §1
# [4] = hybrid B = DKC46-26, 10 locations
# [5] = hybrid D = DKC51-88, 10 locations
# [6] = hybrid F = LH244XLH295, 10 locations
# [7] = hybrid H = HC33XLH277, 14 locations
# [8] = hybrid I = DKC57-38, 14 locations
# [9] = vs fungicide-treated control, 12 hybrids
smiles,measurement,setting,value
"O=[N+]([O-])NC1=NCCN1Cc1ccc(Cl)nc1 [Imidacloprid, imidacloprid]",increase in corn yield,corn hybrids; conservation/minimum tillage,1.6%
same,increase in corn yield,corn hybrids; convention tillage,1.7%
same,increase in corn yield,corn hybrids; no-till cultivation,6.3%
same,corn yield vs seeds without imidacloprid treatment,"corn hybrids; planted on soil treated with soil-applied insecticide, all tillage conditions and hybrids",considerably higher yield
same,effect of imidacloprid treatment on yield for isoline corn,[1],increased by imidacloprid treatment in one-half of the cases tested
same,"Stand count, Imidacloprid treated","commercial corn hybrids; hybrid A = DK440, 10 locations",31920 plts/ac
same,"Corn yield, Imidacloprid treated","commercial corn hybrids; hybrid A = DK440, 10 locations",163.5 bu/ac
same,"Stand count, Imidacloprid treated",commercial corn hybrids; [4],32061 plts/ac
same,"Corn yield, Imidacloprid treated",commercial corn hybrids; [4],170.8 bu/ac
same,"Stand count, Imidacloprid treated","commercial corn hybrids; hybrid C = DK493, 10 locations",31217 plts/ac
same,"Corn yield, Imidacloprid treated","commercial corn hybrids; hybrid C = DK493, 10 locations",159.6 bu/ac
same,"Stand count, Imidacloprid treated",commercial corn hybrids; [5],31828 plts/ac
same,"Corn yield, Imidacloprid treated",commercial corn hybrids; [5],169.4 bu/ac
same,"Stand count, Imidacloprid treated","commercial corn hybrids; hybrid E = DK537, 10 locations",32011 plts/ac
same,"Corn yield, Imidacloprid treated","commercial corn hybrids; hybrid E = DK537, 10 locations",171.2 bu/ac
same,"Stand count, Imidacloprid treated",commercial corn hybrids; [6],30786 plts/ac
same,"Corn yield, Imidacloprid treated",commercial corn hybrids; [6],173.1 bu/ac
same,"Stand count, Imidacloprid treated","commercial corn hybrids; hybrid G = DK567, 14 locations",28766 plts/ac
same,"Corn yield, Imidacloprid treated","commercial corn hybrids; hybrid G = DK567, 14 locations",167.5 bu/ac
same,"Stand count, Imidacloprid treated",commercial corn hybrids; [7],28004 plts/ac
same,"Corn yield, Imidacloprid treated",commercial corn hybrids; [7],164.6 bu/ac
same,"Stand count, Imidacloprid treated",commercial corn hybrids; [8],28460 plts/ac
same,"Corn yield, Imidacloprid treated",commercial corn hybrids; [8],172.3 bu/ac
same,"Stand count, Imidacloprid treated","commercial corn hybrids; hybrid J = DK585, 14 locations",28273 plts/ac
same,"Corn yield, Imidacloprid treated","commercial corn hybrids; hybrid J = DK585, 14 locations",179.5 bu/ac
same,"Stand count, Imidacloprid treated","commercial corn hybrids; hybrid K = DK611, 14 locations",28984 plts/ac
same,"Corn yield, Imidacloprid treated","commercial corn hybrids; hybrid K = DK611, 14 locations",171.3 bu/ac
same,"Stand count, Imidacloprid treated","commercial corn hybrids; hybrid L = RX708, 14 locations",28986 plts/ac
same,"Corn yield, Imidacloprid treated","commercial corn hybrids; hybrid L = RX708, 14 locations",180.7 bu/ac
same,"Corn yield, Difference","commercial corn hybrids; hybrid A = DK440, 10 locations",2.0 bu/ac
same,"Stand count, Difference","commercial corn hybrids; hybrid A = DK440, 10 locations",843.8 plts/ac
same,"Corn yield, Difference",commercial corn hybrids; [4],4.1 bu/ac
same,"Stand count, Difference",commercial corn hybrids; [4],439.0 plts/ac
same,"Corn yield, Difference","commercial corn hybrids; hybrid C = DK493, 10 locations",5.8 bu/ac
same,"Stand count, Difference","commercial corn hybrids; hybrid C = DK493, 10 locations",749.5 plts/ac
same,"Corn yield, Difference",commercial corn hybrids; [5],−0.7 bu/ac
same,"Stand count, Difference",commercial corn hybrids; [5],946.8 plts/ac
same,"Corn yield, Difference","commercial corn hybrids; hybrid E = DK537, 10 locations",1.0 bu/ac
same,"Stand count, Difference","commercial corn hybrids; hybrid E = DK537, 10 locations",620.0 plts/ac
same,"Corn yield, Difference",commercial corn hybrids; [6],4.7 bu/ac
same,"Stand count, Difference",commercial corn hybrids; [6],1162.3 plts/ac
same,"Corn yield, Difference","commercial corn hybrids; hybrid G = DK567, 14 locations",3.5 bu/ac
same,"Stand count, Difference","commercial corn hybrids; hybrid G = DK567, 14 locations",1189.2 plts/ac
same,"Corn yield, Difference",commercial corn hybrids; [7],4.8 bu/ac
same,"Stand count, Difference",commercial corn hybrids; [7],39.6 plts/ac
same,"Corn yield, Difference",commercial corn hybrids; [8],9.2 bu/ac
same,"Stand count, Difference",commercial corn hybrids; [8],1822.2 plts/ac
same,"Corn yield, Difference","commercial corn hybrids; hybrid J = DK585, 14 locations",3.7 bu/ac
same,"Stand count, Difference","commercial corn hybrids; hybrid J = DK585, 14 locations",429.3 plts/ac
same,"Corn yield, Difference","commercial corn hybrids; hybrid K = DK611, 14 locations",0.1 bu/ac
same,"Stand count, Difference","commercial corn hybrids; hybrid K = DK611, 14 locations",1022.8 plts/ac
same,"Corn yield, Difference","commercial corn hybrids; hybrid L = RX708, 14 locations",6.9 bu/ac
same,"Stand count, Difference","commercial corn hybrids; hybrid L = RX708, 14 locations",803.7 plts/ac
same,"increase or decrease in corn yield vs untreated seeds (FIG. 2 by hybrid, FIG. 3 by location)","commercial corn hybrids; twelve hybrids, twenty four locations",consistent and commercially important increases in corn yield
same,hybrid/seed treatment combinations with yield increase more than expected on the basis of stand improvement alone,commercial corn hybrids; [9],9 out of 12
same,hybrid/seed treatment combinations with yield increase over two-times that predicted on the basis of stand improvement,commercial corn hybrids; [9],7 out of 12
same,Actual Yield Over Expected,commercial corn hybrids; hybrid A = DK440,Yes
same,Actual Yield Over Expected,commercial corn hybrids; hybrid B = DKC46-26,Yes
same,Actual Yield Over Expected,commercial corn hybrids; hybrid C = DK493,Yes
same,Actual Yield Over Expected,commercial corn hybrids; hybrid D = DKC51-88,No
same,Actual Yield Over Expected,commercial corn hybrids; hybrid E = DK537,No
same,Actual Yield Over Expected,commercial corn hybrids; hybrid F = LH244XLH295,Yes
same,Actual Yield Over Expected,commercial corn hybrids; hybrid G = DK567,Yes
same,Actual Yield Over Expected,commercial corn hybrids; hybrid H = HC33XLH277,Yes
same,Actual Yield Over Expected,commercial corn hybrids; hybrid I = DKC57-38,Yes
same,Actual Yield Over Expected,commercial corn hybrids; hybrid J = DK585,Yes
same,Actual Yield Over Expected,commercial corn hybrids; hybrid K = DK611,No
same,Actual Yield Over Expected,commercial corn hybrids; hybrid L = RX708,Yes
same,Actual Yield Over 2× of Expected,commercial corn hybrids; hybrid A = DK440,No
same,Actual Yield Over 2× of Expected,commercial corn hybrids; hybrid B = DKC46-26,Yes
same,Actual Yield Over 2× of Expected,commercial corn hybrids; hybrid C = DK493,Yes
same,Actual Yield Over 2× of Expected,commercial corn hybrids; hybrid D = DKC51-88,No
same,Actual Yield Over 2× of Expected,commercial corn hybrids; hybrid E = DK537,No
same,Actual Yield Over 2× of Expected,commercial corn hybrids; hybrid F = LH244XLH295,Yes
same,Actual Yield Over 2× of Expected,commercial corn hybrids; hybrid G = DK567,No
same,Actual Yield Over 2× of Expected,commercial corn hybrids; hybrid H = HC33XLH277,Yes
same,Actual Yield Over 2× of Expected,commercial corn hybrids; hybrid I = DKC57-38,Yes
same,Actual Yield Over 2× of Expected,commercial corn hybrids; hybrid J = DK585,Yes
same,Actual Yield Over 2× of Expected,commercial corn hybrids; hybrid K = DK611,No
same,Actual Yield Over 2× of Expected,commercial corn hybrids; hybrid L = RX708,Yes
same,protection of corn seedlings against stand reducing and growth limiting secondary insect pests,[2],effective
same,reduction of root injury by corn rootworm,[2]; locations with economically damaging levels of corn rootworm,not significantly reduce root injury
same,corn yield of transgenic seed treated with imidacloprid vs isolines and untreated transgenic strains,[3],"higher than the isolines, and also higher than the untreated transgenic strains"
